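Five concentrations, 48 hours, 96-well plates. At the GI50, growth is halved. TGI: total growth inhibition.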
Columns and labels:
Assay in all cases: inhibition of tumour cell growth, NCI panel, 48 h
[1] = tested on: EKVX NSCLC
[2] = tested on: HCC-2998 colon
[3] = tested on: HCT-116 colon
[4] = tested on: HS 578T breast
[5] = tested on: KM12 colon
[6] = tested on: MDA-MB-435
[7] = tested on: NCI-H460 lung
[8] = tested on: OVCAR-4 ovarian
[9] = tested on: SK-MEL-28 melanoma
[10] = tested on: SW-620 colon

Compound | TGI [1] [µM] | TGI [2] [µM] | TGI [3] [µM] | TGI [4] [µM] | TGI [5] [µM] | TGI [6] [µM] | TGI [7] [µM] | TGI [8] [µM] | TGI [9] [µM] | TGI [10] [µM] | GI50 [1] [µM] | GI50 [3] [µM] | GI50 [5] [µM] | GI50 [7] [µM] | GI50 [9] [µM] | GI50 [10] [µM]
NC(=S)NS(=O)(=O)c1ccc(Cl)cc1Cl | > 100 | > 100 | > 100 | > 100 | > 100 | > 100 | > 100 | > 100 | > 100 | > 100 | – | – | – | – | – | –
O=[N+]([O-])c1ccc(-c2nc3ccccc3o2)cc1 | > 100 | > 100 | > 100 | > 100 | > 100 | > 100 | > 100 | > 100 | > 100 | > 100 | – | – | – | – | – | –
NC(Cc1ccccc1)C(=O)O (stereo unspecified) | > 100 | > 100 | > 100 | > 100 | > 100 | > 100 | > 100 | > 100 | > 100 | > 100 | – | – | – | – | – | –
C1CN(C23OC4(N5CCOCC5)C5C6CC(C7C6C4C72)C53)CCO1 (stereo unspecified) | > 100 | > 100 | > 100 | > 100 | > 100 | > 100 | > 100 | > 100 | > 100 | > 100 | – | – | – | – | – | –
CCCS(=O)OC1C(C2COC(C)(C)O2)OC2OC(C)(C)OC21 (stereo unspecified) | 32 | 32.6 | 19.4 | > 100 | 28.2 | 23.4 | > 62.1 | 34.7 | 32.7 | 32.8 | – | – | – | – | – | –
COc1ccc(C2=C(N)c3ccccc3C2=O)cc1 | > 100 | > 100 | > 100 | 63.9 | > 100 | > 100 | > 100 | > 100 | > 100 | > 100 | – | – | – | – | – | –
COc1ccc(N2C(=O)CSC2c2cc(OC)c(OC)c(OC)c2)cc1 (stereo unspecified) | > 100 | 39.9 | 33.4 | > 100 | 32.9 | 85.2 | 63.5 | > 100 | > 100 | > 100 | – | – | – | – | – | –
NCCCN1CCN(CCCNc2ccc3ncn4c5ccccc5c(=O)c2c34)CC1 | 9.03 | 2.93 | 18.3 | 22.1 | 13.1 | > 25 | 6.24 | 2.89 | 19.6 | > 25 | – | – | – | – | – | –
CCOC(=O)c1c(C)n(CCN2CCN(C)CC2)c2ccc(OC)cc12 | > 100 | 30.7 | > 100 | > 100 | > 100 | 56.2 | > 100 | > 100 | 32 | > 100 | – | – | – | – | – | –
O=c1[nH]nc(Cc2ccc([N+](=O)[O-])cc2)[nH]1 | > 100 | > 100 | > 100 | > 100 | > 100 | > 100 | > 100 | > 100 | > 100 | > 100 | – | – | – | – | – | –
CC(CN(C)C)C(O)(c1ccccc1)c1ccccc1 (stereo unspecified) | > 100 | 93.2 | > 100 | > 100 | > 100 | > 100 | > 100 | > 100 | > 100 | > 100 | – | – | – | – | – | –
CC1=C(C(=O)OC(C)C)C(c2cccc([N+](=O)[O-])c2)C(C(=O)OC(CO[N+](=O)[O-])CO[N+](=O)[O-])=C(C)N1 (stereo unspecified) | > 27.7 | 18.3 | 9.36 | > 41.9 | 12.9 | 15.3 | > 36.7 | 20.9 | 33.7 | > 100 | – | – | – | – | – | –
C=C(Cl)C(=C)CCC(Cl)C(C)(C)Cl (stereo unspecified) | > 100 | > 100 | > 100 | > 100 | > 100 | > 100 | > 100 | > 100 | > 100 | > 100 | – | – | – | – | – | –
Nc1ncc(Cc2nn3c(COc4ccc(Cl)cc4)nnc3s2)s1 | > 100 | > 100 | > 100 | > 100 | > 100 | > 100 | > 100 | > 100 | > 100 | > 100 | – | – | – | – | – | –
Cc1nc2ccccc2n1CCc1nc2ccccc2[nH]1 | > 100 | > 100 | > 100 | > 100 | > 100 | > 100 | > 100 | > 100 | > 100 | > 100 | – | – | – | – | – | –
C[C@@H](CC(O)C(O)C(C)(C)O)C1CCC23CC12CCC1[C@@]2(C)CCC(=O)C(C)(C)C2CC(OC2OC(CO)C(O)C(O)C2O)[C@]13C (stereo partly specified) | > 10 | > 10 | > 10 | > 10 | > 10 | > 10 | > 10 | > 10 | > 10 | > 10 | – | – | – | – | – | –

Compound | TGI [1] [µM] | TGI [2] [µM] | TGI [3] [µM] | TGI [4] [µM] | TGI [5] [µM] | TGI [6] [µM] | TGI [7] [µM] | TGI [8] [µM] | TGI [9] [µM] | TGI [10] [µM] | GI50 [1] [µM] | GI50 [3] [µM] | GI50 [5] [µM] | GI50 [7] [µM] | GI50 [9] [µM] | GI50 [10] [µM]
NC(=O)Nc1n[nH]c(-c2ccccc2)n1 | > 100 | > 100 | > 100 | > 100 | > 100 | > 100 | > 100 | > 100 | > 100 | > 100 | – | – | – | – | – | –
C=C1C[C@]23CC[C@@H]4C(CO)(CO)CC(=O)C[C@]4(C)[C@@H]2C(O)C[C@H]1C3 (stereo partly specified) | > 100 | > 100 | > 100 | > 100 | > 100 | > 100 | > 100 | > 100 | > 100 | > 100 | – | – | – | – | – | –
C=C1C(=O)O[C@H]2[C@@H](O)[C@H](C)CCC/C(C)=C/CC[C@@]3(C)O[C@@H]3C[C@@H]12 | 19 | 26 | 12.4 | > 100 | 33.1 | 29.5 | 16.8 | 19.8 | 33.5 | 39.9 | – | – | – | – | – | –
COC(=O)[C@]12CCC(=O)N1[C@H](C(=O)O)Cc1c2[nH]c2ccccc12 | > 100 | > 100 | > 100 | > 100 | > 100 | > 100 | > 100 | > 100 | > 100 | > 100 | – | – | – | – | – | –
CCOc1cc(C=Nc2ccc(Oc3ccc(Cl)cc3)c(Cl)c2)ccc1O | 41.3 | 43.4 | 37.8 | 45.4 | 39 | > 100 | 43.2 | 80.4 | 63.1 | > 100 | – | – | – | – | – | –
COc1cc2c(cc1OCc1ccccc1)NC(=O)[C@@H]1C[C@@H](O)CN1C2=O | > 100 | > 100 | > 100 | > 100 | > 100 | > 100 | > 100 | > 100 | > 100 | > 100 | – | – | – | – | – | –
COc1cc(/C=C/C=C2\CC(C)C/C(=C\C=C\c3ccc(O)c(OC)c3)C2=O)ccc1O (stereo unspecified) | > 100 | > 100 | > 100 | > 100 | > 100 | 41 | 92.3 | 39.9 | 45.5 | > 100 | – | – | – | – | – | –
CCCCCCCCCCCOCCC1C(C(C)OCCN2CCCC2)OC2OC(C)(C)OC21 (stereo unspecified) | 10.8 | 4.83 | 3.38 | 6.93 | 1.78 | 3.51 | 5.05 | 22.3 | 3.08 | 3.55 | – | – | – | – | – | –
CCCCCCCCCC[C@@H](O)[C@H]1CC[C@@H]([C@H]2CC[C@H]([C@H](O)CCCCCCCCCC[C@@H]3CC(CC(C)=O)C(=O)O3)O2)O1 (stereo partly specified) | > 100 | 62.5 | > 100 | 3.78 | > 100 | > 100 | > 100 | 85.5 | > 100 | > 100 | 19.2 | 0.218 | 24.2 | 0.0647 | 29 | 37.2
Cc1nc(-c2ccc(Cl)cc2)cn2c1nc1ccccc12 | > 100 | > 100 | > 100 | > 100 | > 100 | > 100 | > 100 | > 100 | > 100 | > 100 | – | – | – | – | – | –
OCC1=C[C@@](COCc2ccccc2)(OCc2ccccc2)[C@@H](OCc2ccccc2)[C@@H]1OCc1ccccc1 | 51.4 | 32.3 | 47 | 87.6 | 56.6 | 27.4 | 53.1 | 73.3 | > 100 | > 100 | – | – | – | – | – | –
OCC(CO)CC1COc2ccccc2O1 (stereo unspecified) | > 10 | > 10 | > 10 | > 10 | > 10 | > 10 | > 10 | > 10 | > 10 | > 10 | – | – | – | – | – | –
O=C(O)c1cc2c(cc1CC(Cc1ccccc1)C(=O)O)CCC2 (stereo unspecified) | > 100 | > 100 | > 100 | > 100 | > 100 | > 100 | > 100 | > 100 | > 100 | > 100 | – | – | – | – | – | –
c1csc(-c2csc(-c3cccs3)c2)c1 | > 100 | > 100 | > 100 | > 100 | > 100 | > 100 | > 100 | > 100 | > 100 | > 100 | – | – | – | – | – | –
CCSc1nn(-c2c3ccccc3nc3ccccc23)c(=S)s1 | > 100 | > 100 | > 100 | > 100 | > 100 | > 100 | > 100 | > 100 | > 100 | > 100 | – | – | – | – | – | –
Oc1cc(Br)cc2cc(Br)cnc12 | 37.4 | 57.3 | > 100 | 63.8 | > 100 | > 100 | 22.1 | 9.59 | > 100 | > 100 | – | – | – | – | – | –

Source: PubChem BioAssay (NCI)
